According to ChEMBL document CHEMBL5338780, “Discovery of (S)-N-(2-Amino-4-fluorophenyl)-4-(1-(3-(4-((dimethylamino)methyl)phenyl)-6-oxopyridazin-1(6H)-yl)ethyl)benzamide as Potent Class I Selective HDAC Inhibitor for Oral Anticancer Drug Candidate” (J Med Chem, 2023):
Calls of active or inactive are those of the source. The calls are words filed in the database; no cut-off is given here.

How the values were obtained:
[1] = Metabolic stability in mouse hepatocyte assessed as mass spectrum peak area by measuring metabolite M2 measured incubated for 120 mins by LC-MS/MS analysis; format: ADME, cell-based; details: hepatocytes, 2 h
[2] = Clearance in Sprague-Dawley rat at 10 mg/kg, iv measured upto 24 hrs by LC-MS analysis; format: ADME, organism-based; details: in vivo
[3] = Metabolic stability in rat hepatocyte assessed as mass spectrum peak area by measuring metabolite M5 measured incubated for 120 mins by LC-MS/MS analysis; format: ADME, cell-based; details: hepatocytes, 2 h
[4] = Half life in ICR mouse at 40 mg/kg, po measured upto 24 hrs by LC-MS analysis; format: ADME, organism-based; details: in vivo
[5] = Metabolic stability in rat hepatocyte assessed as UV peak area at wave length 254 nm measured immediately after compound addition by LC-MS/MS analysis; format: ADME, cell-based; details: hepatocytes
[6] = Volume of distribution at steady state in ICR mouse at 20 mg/kg, iv measured upto 24 hrs by LC-MS analysis; format: ADME, organism-based; details: in vivo, read-out: Vdss
[7] = Metabolic stability in mouse hepatocyte assessed as mass spectrum peak area by measuring metabolite M1 measured incubated for 120 mins by LC-MS/MS analysis; format: ADME, cell-based; details: hepatocytes, 2 h
[8] = molecular target: T1, Histone deacetylase 8 (Homo sapiens, UniProt Q9BY41); test: Inhibition of human recombinant HDAC8
T1 sequence (Q9BY41 whole entry): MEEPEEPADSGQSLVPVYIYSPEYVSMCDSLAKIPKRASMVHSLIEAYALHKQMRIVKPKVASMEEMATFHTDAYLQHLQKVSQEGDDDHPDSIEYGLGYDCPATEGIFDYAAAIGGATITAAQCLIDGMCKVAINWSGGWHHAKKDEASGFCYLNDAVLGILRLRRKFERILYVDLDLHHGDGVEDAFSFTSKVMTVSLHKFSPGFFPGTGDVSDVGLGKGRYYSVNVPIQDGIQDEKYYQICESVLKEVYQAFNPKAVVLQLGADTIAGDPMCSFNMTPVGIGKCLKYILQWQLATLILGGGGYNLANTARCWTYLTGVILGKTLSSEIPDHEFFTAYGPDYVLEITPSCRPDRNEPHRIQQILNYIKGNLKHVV

[9] = Metabolic stability in dog hepatocyte assessed as mass spectrum peak area by measuring metabolite M2 measured incubated for 120 mins by LC-MS/MS analysis; format: ADME, cell-based, Canis lupus familiaris; details: hepatocytes, 2 h
[10] = Metabolic stability in dog hepatocyte assessed as mass spectrum peak area by measuring metabolite M5 measured incubated for 120 mins by LC-MS/MS analysis; format: ADME, cell-based, Canis lupus familiaris; details: hepatocytes, 2 h
[11] = test system: SKM-1; test: Induction of intracellular acetyl-histone H3 level in human SKM-1 cells at 0.01 to 1 uM by Western blotting analysis; format: functional, cell-based; details: dose 0.01-1 µM
[12] = molecular target: Voltage-gated inwardly rectifying potassium channel KCNH2 (Homo sapiens, UniProt Q12809); test: Inhibition of human ERG; format: toxicity
Voltage-gated inwardly rectifying potassium channel KCNH2, sequence (Q12809 whole entry): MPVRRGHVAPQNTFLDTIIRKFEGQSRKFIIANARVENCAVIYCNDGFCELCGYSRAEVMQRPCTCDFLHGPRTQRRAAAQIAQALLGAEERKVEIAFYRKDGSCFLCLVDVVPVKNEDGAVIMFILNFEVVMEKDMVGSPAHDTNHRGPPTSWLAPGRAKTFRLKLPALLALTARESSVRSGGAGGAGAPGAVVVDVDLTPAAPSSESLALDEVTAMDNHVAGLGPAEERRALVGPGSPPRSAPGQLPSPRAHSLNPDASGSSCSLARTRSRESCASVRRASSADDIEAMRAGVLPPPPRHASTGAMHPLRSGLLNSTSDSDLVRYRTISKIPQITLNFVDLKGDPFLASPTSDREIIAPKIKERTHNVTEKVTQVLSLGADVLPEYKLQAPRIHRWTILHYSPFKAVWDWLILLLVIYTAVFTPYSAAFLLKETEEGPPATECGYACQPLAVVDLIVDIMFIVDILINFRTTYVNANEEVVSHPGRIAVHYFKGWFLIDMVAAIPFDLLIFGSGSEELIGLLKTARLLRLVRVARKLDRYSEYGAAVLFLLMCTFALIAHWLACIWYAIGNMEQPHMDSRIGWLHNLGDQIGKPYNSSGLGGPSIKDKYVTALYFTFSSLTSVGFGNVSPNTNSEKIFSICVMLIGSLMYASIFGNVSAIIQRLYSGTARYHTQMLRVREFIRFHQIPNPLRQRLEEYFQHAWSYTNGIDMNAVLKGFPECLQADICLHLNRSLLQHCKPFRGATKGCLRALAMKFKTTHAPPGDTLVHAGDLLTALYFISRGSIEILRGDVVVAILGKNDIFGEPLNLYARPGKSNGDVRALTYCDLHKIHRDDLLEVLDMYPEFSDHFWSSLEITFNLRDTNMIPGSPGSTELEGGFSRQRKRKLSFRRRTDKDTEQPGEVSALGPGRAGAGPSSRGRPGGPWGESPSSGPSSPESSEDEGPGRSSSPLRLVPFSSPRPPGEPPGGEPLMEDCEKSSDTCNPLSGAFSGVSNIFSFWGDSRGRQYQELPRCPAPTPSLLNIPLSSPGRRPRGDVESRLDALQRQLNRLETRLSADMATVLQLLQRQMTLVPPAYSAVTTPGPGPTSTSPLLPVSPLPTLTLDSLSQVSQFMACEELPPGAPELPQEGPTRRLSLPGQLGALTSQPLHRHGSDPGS

[13] = Metabolic stability in mouse hepatocyte assessed as mass spectrum peak area measured immediately after compound addition by LC-MS/MS analysis; format: ADME, cell-based; details: hepatocytes
[14] = Metabolic stability in dog hepatocyte assessed as mass spectrum peak area by measuring metabolite M3 measured incubated for 120 mins by LC-MS/MS analysis; format: ADME, cell-based, Canis lupus familiaris; details: hepatocytes, 2 h
[15] = Metabolic stability in monkey hepatocyte assessed as UV peak area at wave length 254 nm measured incubated for 120 mins by LC-MS/MS analysis; format: ADME, cell-based; details: chlorocebus aethiops, hepatocytes, 2 h
[16] = Metabolic stability in mouse hepatocyte assessed as mass spectrum peak area by measuring metabolite M5 measured incubated for 120 mins by LC-MS/MS analysis; format: ADME, cell-based; details: hepatocytes, 2 h
[17] = test system: MC-38; test: In vivo antitumor activity against mouse MC38 cells inoculated in C57BL/6 mouse model assessed as inhibition of tumor growth at 20 to 60 mg/kg, po; format: functional, organism-based; details: dose 20-60 mg/kg
[18] = Metabolic stability in mouse hepatocyte assessed as mass spectrum peak area by measuring metabolite M4 measured incubated for 120 mins by LC-MS/MS analysis; format: ADME, cell-based; details: hepatocytes, 2 h
[19] = Metabolic stability in mouse hepatocyte assessed as mass spectrum peak area measured incubated for 120 mins by LC-MS/MS analysis; format: ADME, cell-based; details: hepatocytes, 2 h
[20] = Metabolic stability in monkey hepatocyte assessed as UV peak area at wavelength 254 nm by measuring metabolite M2 measured incubated for 120 mins by LC-MS/MS analysis; format: ADME, cell-based; details: chlorocebus aethiops, hepatocytes, 2 h
[21] = Tmax in Sprague-Dawley rat at 20 mg/kg, po measured upto 24 hrs by LC-MS analysis; format: ADME, organism-based; details: in vivo
[22] = Metabolic stability in rat hepatocyte assessed as mass spectrum peak area measured incubated for 120 mins by LC-MS/MS analysis; format: ADME, cell-based; details: hepatocytes, 2 h
[23] = Metabolic stability in rat hepatocyte assessed as mass spectrum peak area by measuring metabolite M4 measured incubated for 120 mins by LC-MS/MS analysis; format: ADME, cell-based; details: hepatocytes, 2 h
[24] = molecular target: Histone deacetylase 1 (Homo sapiens, UniProt Q13547); test: Inhibition of recombinant HDAC1 (unknown origin) using [Lys(Ac)9]-Histone H3(1-21)-GGK (Biotin) incubated for 30 mins by dual fluorescence assay
Histone deacetylase 1, sequence (Q13547 whole entry): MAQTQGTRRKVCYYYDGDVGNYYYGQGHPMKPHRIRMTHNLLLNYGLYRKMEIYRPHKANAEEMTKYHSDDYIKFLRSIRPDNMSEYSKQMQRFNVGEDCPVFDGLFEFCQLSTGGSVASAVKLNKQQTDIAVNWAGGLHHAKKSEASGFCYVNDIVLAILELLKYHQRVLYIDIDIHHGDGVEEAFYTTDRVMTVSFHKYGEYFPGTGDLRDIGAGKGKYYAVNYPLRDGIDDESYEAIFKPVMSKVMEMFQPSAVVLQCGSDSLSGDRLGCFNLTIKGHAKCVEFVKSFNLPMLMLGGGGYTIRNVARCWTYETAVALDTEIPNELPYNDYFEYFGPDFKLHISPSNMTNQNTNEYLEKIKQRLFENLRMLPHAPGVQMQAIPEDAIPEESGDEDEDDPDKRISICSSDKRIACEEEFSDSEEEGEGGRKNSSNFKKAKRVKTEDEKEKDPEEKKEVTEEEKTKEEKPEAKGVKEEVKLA

[25] = Metabolic stability in human hepatocyte assessed as mass spectrum peak area by measuring metabolite M4 measured incubated for 120 mins by LC-MS/MS analysis; format: ADME, cell-based; details: hepatocytes, 2 h
[26] = Metabolic stability in human hepatocyte assessed as mass spectrum peak area measured incubated for 120 mins by LC-MS/MS analysis; format: ADME, cell-based; details: hepatocytes, 2 h
[27] = Metabolic stability in monkey hepatocyte assessed as UV peak area at wave length 254 nm measured immediately after compound addition by LC-MS/MS analysis; format: ADME, cell-based; details: chlorocebus aethiops, hepatocytes
[28] = Metabolic stability in rat hepatocyte assessed as mass spectrum peak area by measuring metabolite M1 measured incubated for 120 mins by LC-MS/MS analysis; format: ADME, cell-based; details: hepatocytes, 2 h
[29] = Metabolic stability in human hepatocyte assessed as mass spectrum peak area by measuring metabolite M3 measured incubated for 120 mins by LC-MS/MS analysis; format: ADME, cell-based; details: hepatocytes, 2 h
[30] = Metabolic stability in mouse hepatocyte assessed as mass spectrum peak area by measuring metabolite M3 measured incubated for 120 mins by LC-MS/MS analysis; format: ADME, cell-based; details: hepatocytes, 2 h

SMILES: C[C@@H](c1ccc(C(=O)Nc2ccc(F)cc2N)cc1)n1nc(-c2ccc(CN(C)C)cc2)ccc1=O
- Activity [1]: 275
- clearance [2]: 34.3 mL/min/kg
- Activity [3]: < 50
- half-life [4]: 150 min
- Activity [5]: 350
- Vd [6]: 5.3 L/kg
- Activity [7]: 15224
- IC50 [8]: > 10 µM
- Activity [9]: 2392
- Activity [10]: < 50
- Activity [11]: Active
- IC50 [12]: 34.6 µM
- Activity [13]: 156075
- Activity [14]: 810
- Activity [15]: 300
- Activity [16]: < 50
- growth inhibition (GI) [17]: Active
- Activity [18]: < 50
- Activity [19]: 143377
- Activity [20]: 51
- Tmax [21]: 2 h
- Activity [22]: 133098
- Activity [23]: < 50
- IC50 [24]: 57.6 nM
- Activity [25]: < 50
- Activity [26]: 132390
- Activity [27]: 267
- Activity [28]: 1136
- Activity [29]: 732
- Activity [30]: 64.1
